Measured values published in the NIST ThermoML archive (doi:10.1016/j.jct.2011.09.011).
± gives the expanded uncertainty stated by the source.

Assay: excess molar enthalpy (molar enthalpy of mixing); xn = mol fraction of the nth substance listed
Conditions: 101 kPa, Liquid, Parr 1455 solution calorimeter

CCCCCCCCCCO [decan-1-ol] + CC#N
Conditions | excess molar enthalpy [kcal/mol]
298.15 K, x1 = 0.0436 | 0.171 ± 0.00789
298.15 K, x1 = 0.0542 | 0.206 ± 0.00908
298.15 K, x1 = 0.0678 | 0.248 ± 0.0105
298.15 K, x1 = 0.079 | 0.279 ± 0.0117
298.15 K, x1 = 0.0919 | 0.313 ± 0.0131
298.15 K, x1 = 0.1077 | 0.351 ± 0.0146
298.15 K, x1 = 0.127 | 0.393 ± 0.0163
298.15 K, x1 = 0.1509 | 0.44 ± 0.0179
298.15 K, x1 = 0.181 | 0.491 ± 0.0201
298.15 K, x1 = 0.2197 | 0.546 ± 0.0222
298.15 K, x1 = 0.271 | 0.607 ± 0.0239
298.15 K, x1 = 0.3415 | 0.671 ± 0.0263
298.15 K, x1 = 0.3857 | 0.699 ± 0.0287
298.15 K, x1 = 0.4394 | 0.72 ± 0.0287
298.15 K, x1 = 0.5058 | 0.724 ± 0.0287
298.15 K, x1 = 0.5895 | 0.694 ± 0.0287
298.15 K, x1 = 0.6985 | 0.596 ± 0.0239
298.15 K, x1 = 0.78 | 0.482 ± 0.0198
298.15 K, x1 = 0.8433 | 0.372 ± 0.0153
298.15 K, x1 = 0.9159 | 0.222 ± 0.00932
303.15 K, x1 = 0.0586 | 0.245 ± 0.0103
303.15 K, x1 = 0.0678 | 0.274 ± 0.0115
303.15 K, x1 = 0.079 | 0.306 ± 0.0129
303.15 K, x1 = 0.0919 | 0.342 ± 0.0141
303.15 K, x1 = 0.1077 | 0.38 ± 0.0155
303.15 K, x1 = 0.127 | 0.419 ± 0.0172
303.15 K, x1 = 0.1509 | 0.462 ± 0.0189
303.15 K, x1 = 0.181 | 0.506 ± 0.0206
303.15 K, x1 = 0.2197 | 0.559 ± 0.0227
303.15 K, x1 = 0.271 | 0.622 ± 0.0263
303.15 K, x1 = 0.3415 | 0.689 ± 0.0287
303.15 K, x1 = 0.3857 | 0.713 ± 0.0287
303.15 K, x1 = 0.4394 | 0.732 ± 0.0287
303.15 K, x1 = 0.5058 | 0.736 ± 0.0287
303.15 K, x1 = 0.5895 | 0.711 ± 0.0287
303.15 K, x1 = 0.6985 | 0.628 ± 0.0263
303.15 K, x1 = 0.78 | 0.512 ± 0.0208
303.15 K, x1 = 0.8433 | 0.396 ± 0.0163
303.15 K, x1 = 0.9159 | 0.243 ± 0.01
308.15 K, x1 = 0.0748 | 0.279 ± 0.0117
308.15 K, x1 = 0.1008 | 0.347 ± 0.0143
308.15 K, x1 = 0.1409 | 0.437 ± 0.0179
308.15 K, x1 = 0.1866 | 0.524 ± 0.0215
308.15 K, x1 = 0.2546 | 0.637 ± 0.0263
308.15 K, x1 = 0.3186 | 0.714 ± 0.0287
308.15 K, x1 = 0.4096 | 0.794 ± 0.0335
308.15 K, x1 = 0.4314 | 0.796 ± 0.0335
308.15 K, x1 = 0.455 | 0.794 ± 0.0335
308.15 K, x1 = 0.4807 | 0.788 ± 0.0311
308.15 K, x1 = 0.5088 | 0.78 ± 0.0311
308.15 K, x1 = 0.5395 | 0.767 ± 0.0311
308.15 K, x1 = 0.5734 | 0.75 ± 0.0311
308.15 K, x1 = 0.6109 | 0.724 ± 0.0287
308.15 K, x1 = 0.6525 | 0.686 ± 0.0287
308.15 K, x1 = 0.6991 | 0.636 ± 0.0263
308.15 K, x1 = 0.7515 | 0.567 ± 0.0232
308.15 K, x1 = 0.8108 | 0.471 ± 0.0194
308.15 K, x1 = 0.8785 | 0.336 ± 0.0139
308.15 K, x1 = 0.9566 | 0.142 ± 0.00621

CCCCCCCCCO [nonan-1-ol] + CC#N
excess molar enthalpy [kcal/mol]
Conditions | 298.15 K | 303.15 K | 308.15 K
x1 = 0.0899 | 0.254 ± 0.0108 | 0.297 ± 0.0124 | 0.307 ± 0.0127
x1 = 0.1141 | 0.303 ± 0.0127 | 0.35 ± 0.0143 | 0.364 ± 0.0151
x1 = 0.1501 | 0.365 ± 0.0151 | 0.42 ± 0.0172 | 0.441 ± 0.0182
x1 = 0.1975 | 0.433 ± 0.0179 | 0.5 ± 0.0206 | 0.525 ± 0.0215
x1 = 0.2673 | 0.515 ± 0.0213 | 0.593 ± 0.0239 | 0.627 ± 0.0263
x1 = 0.3318 | 0.573 ± 0.0237 | 0.65 ± 0.0263 | 0.689 ± 0.0287
x1 = 0.4217 | 0.626 ± 0.0263 | 0.708 ± 0.0287 | 0.745 ± 0.0311
x1 = 0.443 | 0.632 ± 0.0263 | 0.71 ± 0.0287 | 0.742 ± 0.0311
x1 = 0.4659 | 0.636 ± 0.0263 | 0.709 ± 0.0287 | 0.738 ± 0.0311
x1 = 0.4906 | 0.639 ± 0.0263 | 0.706 ± 0.0287 | 0.73 ± 0.0287
x1 = 0.5175 | 0.637 ± 0.0263 | 0.701 ± 0.0287 | 0.72 ± 0.0287
x1 = 0.5468 | 0.631 ± 0.0263 | 0.69 ± 0.0287 | 0.705 ± 0.0287
x1 = 0.5787 | 0.619 ± 0.0263 | 0.672 ± 0.0263 | 0.685 ± 0.0287
x1 = 0.6138 | 0.601 ± 0.0239 | 0.647 ± 0.0263 | 0.659 ± 0.0263
x1 = 0.6524 | 0.573 ± 0.0234 | 0.616 ± 0.0239 | 0.625 ± 0.0263
x1 = 0.695 | 0.534 ± 0.0217 | 0.573 ± 0.0234 | 0.583 ± 0.0237
x1 = 0.7425 | 0.482 ± 0.0196 | 0.515 ± 0.021 | 0.529 ± 0.0215
x1 = 0.7955 | 0.414 ± 0.017 | 0.436 ± 0.0179 | 0.455 ± 0.0186
x1 = 0.8552 | 0.323 ± 0.0134 | 0.341 ± 0.0141 | 0.355 ± 0.0146
x1 = 0.9228 | 0.197 ± 0.00837 | 0.21 ± 0.00884 | 0.216 ± 0.00908
